Experimental data published in PMC8147293, “Library of Selenocyanate and Diselenide Derivatives as In Vivo Antichagasic Compounds Targeting Trypanosoma cruzi Mitochondrion” (Pharmaceuticals, 2021).

Experiments:
[1] = test system: epimastigotes of T. cruzi Arequipa strain; experiment: Screening against extracellular epimastigotes (resazurin); format: cell-based, Trypanosoma cruzi; conditions: Trypanosoma cruzi; Table S1; cultured epimastigote form of T. cruzi; read-out: Activity IC50
Description: Trypanocidal activity against epimastigotes of T. cruzi Arequipa strain (MHOM/Pe/2011/Arequipa, discrete typing unit V) was tested as previously described. In short, 5 × 10^5 epimastigotes·mL^−1 were treated by adding the tested compounds at a concentration range from 100 to 0.2 µM in 96-well microplates (200 µL·well^−1) for 48 h. Subsequently, resazurin sodium salt (Sigma-Aldrich) was added to be incubated for further 24 h. Finally, the absorbance was measured, and the trypanocidal activity was expressed as the IC50 (inhibitory concentration 50) using GraphPad Prism 6 software. Each compound concentration was tested in triplicate in three independent experiments.

Mammalian Vero cells = experiment: Cytotoxicity test on Vero cells (resazurin); format: cell-based; conditions: Chlorocebus sabaeus; Table S1; cultured Vero cells; read-out: Toxicity IC50 Vero cell
Description: Mammalian Vero cells (EACC No. 84113001), cultured as previously reported, were used to determine the cytotoxicity of the tested compounds [56]. In short, 1.25 × 10^4 Vero cells·mL^−1 were treated by adding the compounds at a concentration range from 400 to 1 µM in 96-well microplates (200 µL·well^−1) at 37 °C for 48 h. Subsequently, resazurin sodium salt (Sigma-Aldrich) was added to be incubated for further 24 h. Finally, cell viability was determined following the same procedure as described to assess the trypanocidal activity in the epimastigotes. Each compound concentration was tested in triplicate in three independent experiments.

Compound | IC50 [1] [µM] | IC50 (Mammalian Vero cells) [µM]
O=S(=O)(Nc1ccc([Se][Se]c2ccc(NS(=O)(=O)c3ccc(F)cc3)cc2)cc1)c1ccc(F)cc1 [compound 36] | 11.1 ± 0.8 | 70.8 ± 4.8
COc1ccc(S(=O)(=O)Nc2ccc([Se][Se]c3ccc(NS(=O)(=O)c4ccc(OC)cc4)cc3)cc2)cc1 [compound 38] | 27.8 ± 1.6 | 40.3 ± 2.5
Brc1cc2c(cc1C[Se][Se]Cc1cc3c(cc1Br)OCO3)OCO2 [compound 24] | 45.7 ± 2.6 | 61.8 ± 4.1
O=S(=O)(Nc1ccc([Se][Se]c2ccc(NS(=O)(=O)c3ccccc3)cc2)cc1)c1ccccc1 [compound 41] | 6.8 ± 0.7 | 26.5 ± 1.4
O=S(=O)(Nc1ccc([Se][Se]c2ccc(NS(=O)(=O)c3ccc(Cl)cc3)cc2)cc1)c1ccc(Cl)cc1 [compound 34] | 41.3 ± 2.1 | 29.8 ± 3.4
O=S(=O)(Nc1ccc([Se][Se]c2ccc(NS(=O)(=O)c3ccccc3Cl)cc2)cc1)c1ccccc1Cl [compound 35] | 28.4 ± 1.7 | 69 ± 5.3
Brc1ccc(C[Se][Se]Cc2ccc(Br)cc2)cc1 [compound 2] | 39.3 ± 4.1 | 30.7 ± 2.1
